Measured values as given in patent publication US5591741A, “Fungicidal spiroheterocyclic derivatives” (American Cyanamid Company, priority 1993, dated 1997).

Legend:
Venturia inaequalis = assay: Activity against apple scab in-vitro (VII); format: cell-based; conditions: 10 ppm, 10 days, 20° C., mycelial growth
In short: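 V. inaequalis propagules (5×10^4/ml, malt agar-grown) were exposed in half-strength PDB to 10 ppm final test compound delivered in acetone. Growth was scored after incubation for 10 days at 20° C, as a rating relative to untreated or diluent-sprayed controls.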

[1] = tested on: Pseudocercosporella herpotrichoides; assay: Activity against wheat eyespot in-vitro (PHI); format: cell-based; conditions: 10 ppm, 10 days, 20° C., mycelial growth
In short: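 Mycelial growth was scored after 10 days at 20 °C against untreated or diluent controls. The broth was half-strength potato dextrose, holding 10 ppm test compound (from acetone) and 5×10^4 fragments/ml of the eyespot fungus.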

[2] = tested on: Erysiphe graminis f.sp. hordei; assay: Direct protectant activity against barley powdery mildew (EGP); format: in vivo; conditions: direct protectant foliar spray, 8 days
In short: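 Rating reflects percentage of leaf area with sporulation compared with untreated or diluent-sprayed controls. Protectant spray was applied to single-leaf barley (cv Golden Promise) 24 h before conidia inoculation. Plants were kept at 18 °C and 40% RH throughout, with 8 days of disease development.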

Leptosphaeria nodorum = assay: Activity against wheat leafspot (LN); format: in vivo; conditions: direct therapeutic foliar spray, 600 ppm, 6-8 days
In short: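 Therapeutic foliar spray: compound at 600 ppm applied to single-leaf wheat (cv Norman) 24 h after inoculation with 1.5×10^6 conidia/ml. Disease control scored after 6-8 days at 22° C and 70% humidity as lesions per leaf versus untreated or diluent-sprayed controls.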

[3] = tested on: Erysiphe graminis f.sp. hordei; assay: Activity against barley powdery mildew, direct therapeutic (EGT); format: in vivo; conditions: direct therapeutic foliar spray, 600 ppm, up to 7 days
In short: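 A curative spray at 600 ppm was applied to single-leaf Golden Promise barley inoculated with powdery mildew conidia the previous day. After up to 7 days at 18 °C and 40% humidity, disease control was rated from percent leaf area sporulating relative to untreated or diluent-sprayed controls.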

Pyricularia oryzae = format: in vivo; conditions: rice seedlings, direct therapeutic foliar spray, 600 ppm, 4-5 days
Botrytis cinerea = assay: Direct protectant activity against broad bean grey mould (BCB); format: in vivo; conditions: direct protectant foliar spray, 600 ppm, 4 days
In short: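 Protectant foliar test: lesion coverage assessed 4 days after inoculation and rated relative to untreated or diluent-sprayed plants. Compound applied at 600 ppm to cv The Sutton leaves 24 h before 10^6 conidia/ml suspension; incubation at 22 °C in high humidity.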

Rhizoctonia solani = assay: Activity against Rhizoctonia in-vitro (RSI); format: cell-based; conditions: 10 ppm, 10 days, 20° C., mycelial growth
In short: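 Compound at a final 10 ppm (acetone vehicle) in half-strength PDB, inoculated with 5×10^4 fragments/ml of shaken-culture R. solani mycelium. After incubation at 20° C for 10 days, growth scored as a rating versus untreated or diluent-treated controls.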

Phytophthora infestans = format: in vivo; conditions: tomato, direct protectant foliar spray
Alternaria solani = assay: Activity against tomato early blight (AS); format: in vivo; conditions: Table VI; tomato seedlings, contact prophylactic foliar spray, 4 days
In short: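 Plants were challenged with A. solani conidia (10^4 spores/ml) 24 h after a protective foliar spray of compound in 50:50 acetone/water plus 0.04% Tween 20. Held humid at 21° C for 4 days, then percent leaf area with lesions was scored as a rating relative to controls.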

Plasmopara viticola = assay: Antisporulant activity against vine downy mildew (PVA); format: in vivo; conditions: vine leaves, antisporulant foliar spray, 600 ppm, 750 l/ha
In short: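 Cabernet Sauvignon vines (~8 cm) inoculated on lower leaf surfaces with 5×10^4 zoosporangia/ml, held 24 h at 21° C high humidity then 24 h glasshouse. Infected leaves sprayed underside with 600 ppm compound in 1:1 water/acetone, 0.04% Tween 20, 750 l/ha; 96 h glasshouse, 24 h humidity. Sporulating leaf area rated versus control.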

| SMILES | disease control rating VII (Venturia inaequalis) | disease control rating PHI [1] | disease control rating EGP [2] | disease control rating LN (Leptosphaeria nodorum) | disease control rating EGT [3] | disease control rating PO (Pyricularia oryzae) | disease control rating BCB (Botrytis cinerea) | disease control rating RSI (Rhizoctonia solani) | disease control rating PIP (Phytophthora infestans) | disease control rating AS (Alternaria solani) | disease control rating PVA (Plasmopara viticola) |
| --- | --- | --- | --- | --- | --- | --- | --- | --- | --- | --- | --- |
| CC(C)(C)C1CCC2(CC1)CC(N1CCCC3CCCCC31)CO2 (centres unmarked) [Compound 116] | 2 (greater than 80% disease control) | 0 (less than 50% disease control) | 2 (greater than 80% disease control) | 0 (less than 50% disease control) | 2 (greater than 80% disease control) | 0 (less than 50% disease control) | 1 (about 50-80% disease control) | 0 (less than 50% disease control) | 0 (less than 50% disease control) | 0 (less than 50% disease control) | 0 (less than 50% disease control) |
| CN(CCC1CCCCC1)C1COC2(CCC(C(C)(C)C)CC2)C1 (centres unmarked) [Compound 117] | 1 (about 50-80% disease control) | 1 (about 50-80% disease control) | 2 (greater than 80% disease control) | 0 (less than 50% disease control) | 2 (greater than 80% disease control) | 0 (less than 50% disease control) | 0 (less than 50% disease control) | 1 (about 50-80% disease control) | 0 (less than 50% disease control) | 2 (greater than 80% disease control) | 0 (less than 50% disease control) |
| CCN(CCC1CCCCC1)C1COC2(CCC(C(C)(C)C)CC2)C1 (centres unmarked) [Compound 118] | 1 (about 50-80% disease control) | 1 (about 50-80% disease control) | 2 (greater than 80% disease control) | 0 (less than 50% disease control) | 2 (greater than 80% disease control) | 0 (less than 50% disease control) | 0 (less than 50% disease control) | 1 (about 50-80% disease control) | 0 (less than 50% disease control) | 0 (less than 50% disease control) | 2 (greater than 80% disease control) |
| CCCN(CCC1CCCCC1)C1COC2(CCC(C(C)(C)C)CC2)C1 (centres unmarked) [Compound 119] | 1 (about 50-80% disease control) | 1 (about 50-80% disease control) | 2 (greater than 80% disease control) | 0 (less than 50% disease control) | 2 (greater than 80% disease control) | 0 (less than 50% disease control) | 0 (less than 50% disease control) | 0 (less than 50% disease control) | 0 (less than 50% disease control) | 0 (less than 50% disease control) | 0 (less than 50% disease control) |
| CC1(CNC2COC3(CCC(C(C)(C)C)CC3)C2)CCCCC1 (centres unmarked) [Compound 120] | 1 (about 50-80% disease control) | 0 (less than 50% disease control) | 2 (greater than 80% disease control) | 0 (less than 50% disease control) | 2 (greater than 80% disease control) | 0 (less than 50% disease control) | 1 (about 50-80% disease control) | 1 (about 50-80% disease control) | 0 (less than 50% disease control) | 0 (less than 50% disease control) | 0 (less than 50% disease control) |
| CC(C)CN(C)C1COC2(CCC(C(C)(C)C)CC2)C1 (centres unmarked) [Compound 121] | 0 (less than 50% disease control) | 0 (less than 50% disease control) | 2 (greater than 80% disease control) | 0 (less than 50% disease control) | 2 (greater than 80% disease control) | 0 (less than 50% disease control) | 0 (less than 50% disease control) | 0 (less than 50% disease control) | 0 (less than 50% disease control) | 0 (less than 50% disease control) | 0 (less than 50% disease control) |
| CC(C)N(CCC1CCCCC1)C1COC2(CCC(C(C)(C)C)CC2)C1 (centres unmarked) [Compound 122] | 0 (less than 50% disease control) | 0 (less than 50% disease control) | 2 (greater than 80% disease control) | 0 (less than 50% disease control) | 2 (greater than 80% disease control) | 2 (greater than 80% disease control) | 0 (less than 50% disease control) | 0 (less than 50% disease control) | 0 (less than 50% disease control) | 0 (less than 50% disease control) | 0 (less than 50% disease control) |
| CCCN(CC(C)C)C1COC2(CCC(C(C)(C)C)CC2)C1 (centres unmarked) [Compound 123] | 0 (less than 50% disease control) | 0 (less than 50% disease control) | 2 (greater than 80% disease control) | 0 (less than 50% disease control) | 2 (greater than 80% disease control) | 1 (about 50-80% disease control) | 0 (less than 50% disease control) | 0 (less than 50% disease control) | 0 (less than 50% disease control) | 0 (less than 50% disease control) | 0 (less than 50% disease control) |
| CC(=CC(=O)CC(C)C)NC1COC2(CCC(C(C)(C)C)CC2)C1 (centres unmarked) [Compound 124] | 0 (less than 50% disease control) | 0 (less than 50% disease control) | 2 (greater than 80% disease control) | 0 (less than 50% disease control) | 2 (greater than 80% disease control) | 0 (less than 50% disease control) | 0 (less than 50% disease control) | 0 (less than 50% disease control) | 2 (greater than 80% disease control) | 0 (less than 50% disease control) | 0 (less than 50% disease control) |
| CN(CC1(C)CCCCC1)C1COC2(CCC(C(C)(C)C)CC2)C1 (centres unmarked) [Compound 125] | 1 (about 50-80% disease control) | 1 (about 50-80% disease control) | 2 (greater than 80% disease control) | 0 (less than 50% disease control) | 2 (greater than 80% disease control) | 0 (less than 50% disease control) | 0 (less than 50% disease control) | 0 (less than 50% disease control) | 0 (less than 50% disease control) | 0 (less than 50% disease control) | 0 (less than 50% disease control) |
